Data from patent US20160199439A1, “Application of recombinant immunoregulatory protein of ganoderma lucidum in preparation of drug for treating focal cerebral ischemia” (priority 2013, published 2016).

What was measured:
[1] = Weights of rats with focal cerebral ischemia; type: in vivo, rat; conditions: GM-1 group, in g (unit assumed)
Text: Weighing rats before modeling; preparing rat focal cerebral ischemia models through a modified Zea Longa method; weighing the rats on the first postoperative day; and weighing the rats after consecutively administrating a drug for 7 days.

[2] = tested on: rat focal cerebral ischemia models; assay: NSS grading (modified neurological severity scores, 16-point system) in rat focal cerebral ischemia models; type: in vivo; conditions: GM-1 positive drug control group
Protocol: Preparing rat focal cerebral ischemia models through a modified Zea Longa method; grading the rats which were fully conscious after operation according to a modified NSS grading standard (16-point system); arranging a sham operation group, a model group, a positive drug control group, a rLZ-8 high-dosage group (70 μg·kg^−1), a rLZ-8 middle-dosage group (35 μg·kg^−1) and a rLZ-8 low-dosage group (17.5 μg·kg^−1); and injecting intraperitoneally, twice a day, wherein the same volume of physiological saline was injected into the sham operation group and the model group, for consecutive 7 days. A positive drug in the positive drug control group was the GM-1.

apoptotic cells = assay: Test of apoptosis in brain tissue by TUNEL kit; type: in vivo, rat; conditions: GM-1 group; after modeling for 8 days
Protocol: The rLZ-8 high-dosage group, the rLZ-8 middle-dosage group and the rLZ-8 low-dosage group were provided and prepared by physiological saline to respectively have a concentration of 70 μg·ml^−1, 35 μg·ml^−1 and 17.5 μg·ml^−1. TUNEL kit.
The sham operation group, the model group, the positive drug control group, the rLZ-8 high-dosage group (70 μg·ml^−1), the rLZ-8 middle-dosage group (35 μg·ml^−1) and the rLZ-8 low-dosage group (17.5 μg·ml^−1) were provided.
After being embedded by conventional paraffin and sectioned, a brain tissue paraffin section was processed according to instructions of the TUNEL kit. […]

ED-1 positive cells = assay: ED-1 positive cell expression in brain tissue (immunohistochemistry); type: in vivo, rat; conditions: GM-1 group; after modeling for 8 days
Protocol: The rLZ-8 high-dosage group, the rLZ-8 middle-dosage group and the rLZ-8 low-dosage group were provided and prepared by physiological saline to respectively have a concentration of 70 μg·ml^−1, 35 μg·ml^−1 and 17.5 μg·ml^−1. ED-1 antibody was provided by Wuhan Boster Biological Technology Co., Ltd., and PV-6000 two-step method immunohistochemical detection reagent was provided by Beijing Zhongshan Golden Bridge Biotechnology Co., Ltd.
The sham operation group, the model group, the positive drug control group, the rLZ-8 high-dosage group (70 μg·kg^−1), the rLZ-8 middle-dosage group (35 μg·kg^−1) and the rLZ-8 low-dosage group (17.5 μg·kg^−1) were provided.
After being embedded by conventional paraffin and sectioned, a brain tissue paraffin section was tested through an immunologic tissue chemical staining method to test an ED-1 positive cell expression thereof. […]

Substance: monosialotetrahexosyl ganglioside sodium injection [GM-1]
- Weights of rats ([1]; 0th day after modeling (before modeling)): 266.17 ± 21.21
- Weights of rats ([1]; 1st day after modeling): 246.17 ± 21.99
- Weights of rats ([1]; 8th day after modeling, drug for 7 days): 251.17 ± 40.31
- NSS grading ([2]; 1st day): 4.33 ± 1.30
- NSS grading ([2]; 2nd day): 3.92 ± 1.38
- NSS grading ([2]; 3rd day): 3.58 ± 1.24
- NSS grading ([2]; 4th day): 2.75 ± 1.09
- NSS grading ([2]; 5th day): 2.50 ± 1.00
- NSS grading ([2]; 6th day): 2.58 ± 1.08
- NSS grading ([2]; 7th day): 2.41 ± 1.00
- NSS grading ([2]; i.p. twice a day, 0th day, n=12): 4.75 ± 1.30
- Apoptotic cell number (TUNEL) (apoptotic cells): 23.10 ± 2.47
- ED-1 positive cell number (ED-1 positive cells): 13.87 ± 2.39
